Experiments:
3T3-L1 [1] = experiment: Inhibition of fat accumulation in mouse 3T3L1 cells assessed as liberated triglyceride after 7 days; assay type: functional, cell-based; conditions: 3T3-L1, 168 h
[2] = Toxicity in mouse 3T3L1 cells; assay type: cell-based; conditions: 3T3-L1 cells
3T3-L1 [3] = experiment: Inhibition of fat accumulation in mouse 3T3L1 cells assessed as liberated triglyceride after 7 days relative to (-)-ternatin; assay type: functional

| SMILES | IC50 (3T3-L1 [1]) [µM] | IC50 [2] [µM] | Activity (3T3-L1 [3]) |
| --- | --- | --- | --- |
| CCCCCC[C@H]1NC(=O)[C@@H]([C@H](O)C(C)C)NC(=O)[C@@H](C)N(C)C(=O)[C@H](C)N(C)C(=O)[C@H](CC(C)C)NC(=O)[C@H](CC(C)C)N(C)C(=O)[C@H](C)N(C)C1=O | 46 | > 130 | – |
| CC[C@H](C)[C@H]1NC(=O)[C@@H]([C@H](O)C(C)C)NC(=O)[C@@H](C)N(C)C(=O)[C@H](C)N(C)C(=O)[C@H](CC(C)C)NC(=O)[C@H](C)N(C)C(=O)[C@H](C)N(C)C1=O | 1.6 | > 29 | – |
| CC[C@H](C)[C@H]1NC(=O)[C@@H](COCc2ccccc2)NC(=O)[C@H](C)N(C)C(=O)[C@H](C)N(C)C(=O)[C@H](CC(C)C)NC(=O)[C@H](CC(C)C)N(C)C(=O)[C@H](C)N(C)C1=O | 5.9 | 89 | – |
| CCCCCC[C@@H]1NC(=O)[C@H](CC(C)C)N(C)C(=O)[C@H](C)N(C)C(=O)[C@@H]([C@@H](C)CC)NC(=O)[C@@H]([C@H](O)C(C)C)NC(=O)[C@@H](C)N(C)C(=O)[C@H](C)N(C)C1=O | > 130 | > 130 | 0.002 |
| CC(C)C[C@@H]1NC(=O)[C@H](CC(C)C)N(C)C(=O)[C@H](C)N(C)C(=O)[C@@H](C)NC(=O)[C@@H]([C@H](O)C(C)C)NC(=O)[C@@H](C)N(C)C(=O)[C@H](C)N(C)C1=O | > 130 | > 130 | 0.002 |
| CCCCCC[C@@H]1C(=O)N[C@H]([C@H](O)C(C)C)C(=O)N[C@H]([C@@H](C)CC)C(=O)N(C)[C@@H](C)C(=O)N(C)[C@@H](CC(C)C)C(=O)N[C@@H](CC(C)C)C(=O)N(C)[C@@H](C)C(=O)N1C | 0.016 | 0.066 | – |
| CCCCCC[C@H]1C(=O)N(C)[C@@H](CC(C)C)C(=O)N[C@@H](CC(C)C)C(=O)N(C)[C@@H](C)C(=O)N(C)[C@H](C)C(=O)N[C@H]([C@H](O)C(C)C)C(=O)N[C@H]([C@@H](C)CC)C(=O)N1C | 1.1 | > 12 | – |
| CC[C@H](C)[C@H]1NC(=O)[C@@H](C)NC(=O)[C@@H](C)N(C)C(=O)[C@H](C)N(C)C(=O)[C@H](CC(C)C)NC(=O)[C@H](CC(C)C)N(C)C(=O)[C@H](C)N(C)C1=O | 14 | > 130 | – |
| CCCCCC[C@H]1C(=O)N(C)[C@H](C)C(=O)N[C@H]([C@H](O)C(C)C)C(=O)N[C@H]([C@@H](C)CC)C(=O)N(C)[C@@H](C)C(=O)N(C)[C@@H](CC(C)C)C(=O)N[C@@H](CC(C)C)C(=O)N1C | 0.12 | 0.96 | – |
| CC[C@H](C)[C@H]1NC(=O)[C@@H]([C@H](O)C(C)C)NC(=O)[C@@H](C)N(C)C(=O)[C@H](C)N(C)C(=O)[C@H](C)NC(=O)[C@H](CC(C)C)N(C)C(=O)[C@H](C)N(C)C1=O | > 130 | > 130 | 0.002 |
| CCCCCC[C@H]1C(=O)N[C@@H](CC(C)C)C(=O)N(C)[C@@H](C)C(=O)N(C)[C@H](C)C(=O)N[C@H]([C@H](O)C(C)C)C(=O)N[C@H]([C@@H](C)CC)C(=O)N(C)[C@@H](C)C(=O)N1C | 0.38 | 2.1 | – |

Source: ChEMBL document CHEMBL1140123, “Whole structure-activity relationships of the fat-accumulation inhibitor (-)-ternatin: recognition of the importance of each amino acid residue” (J Med Chem, 2008)
